Measured values published in the supplement of paper PMC10307832.

Each cell line was assayed with CC1(C)CNc2cc(NC(=O)c3cccnc3NCc3ccncc3)ccc21 [Motesanib] + C[C@]1(O)C[C@@H](c2nc(-c3ccc4ccc(-c5ccccc5)nc4c3)c3c(N)nccn32)C1 [Linsitinib] (partner 1 µM) (assay: relative viability (nuclei count vs DMSO), 5 days (fraction); higher = more cells survive). Details: first compound 0.01 µM.
Procedure, shortened: (§1)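 A single step with final 0.05% Triton X-100, 1% formaldehyde and 1 ug/ml Hoechst fixed the cells and stained nuclei 5 days after treatment. Lung cancer cell lines in 1536-well plates had been treated by pin tool the day after seeding with one drug alone or a fixed anchor-drug dose plus five library-drug doses (not always all listed) in √10 steps, and nuclei were counted on 4× images. Relative viability is the ratio of nuclei in treated wells to nuclei in vehicle wells, taken as the median of duplicate plates.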
For NCI-H647, the relative viability was 1.17. For CAL-12T, the relative viability was 0.81. Cell Line NCI-H1651 has a relative viability of 0.917. EPLC-272H was tested, and the relative viability was 1.23. Cell Line NCI-H2228 has a relative viability of 0.685. NCI-H1792 was tested, and the relative viability was 0.569. Cell Line NCI-H1355 has a relative viability of 0.792. For NCI-H3122, the relative viability was 0.986. For NCI-H1437, the relative viability was 0.972. NCI-H1755 showed a relative viability of 1.02. Work on NCI-H2023 yielded a relative viability of 0.756. Cell Line HCC-15 has a relative viability of 0.928. Work on PC-14 yielded a relative viability of 1.01. For EKVX, the relative viability was 0.939. Work on LC-2-ad yielded a relative viability of 0.828. NCI-H1563 showed a relative viability of 1.26. For NCI-H1944, the relative viability was 1.2. Work on NCI-H1975 yielded a relative viability of 0.962. RERF-LC-KJ showed a relative viability of 0.864. ABC-1 was tested, and the relative viability was 1.01. In the case of NCI-H358, the relative viability is reported as 0.7. In the case of NCI-H650, the relative viability is reported as 0.779. PC-3 [JPC-3] gave a relative viability of 1.05.

Same assay, conditions: first compound 0.03162 µM
NCI-H647 was tested, and the relative viability was 1.12. CAL-12T was tested, and the relative viability was 0.801. For NCI-H1651, the relative viability was 0.912. EPLC-272H gave a relative viability of 1.26. NCI-H2228 showed a relative viability of 0.544. For NCI-H1792, the relative viability was 0.492. In the case of NCI-H1355, the relative viability is reported as 0.75. Cell Line NCI-H3122 has a relative viability of 0.961. Cell Line NCI-H1437 has a relative viability of 1.08. Work on NCI-H1755 yielded a relative viability of 0.999. Work on NCI-H2023 yielded a relative viability of 0.695. For HCC-15, the relative viability was 0.801. In the case of PC-14, the relative viability is reported as 0.97. EKVX gave a relative viability of 0.98. In the case of LC-2-ad, the relative viability is reported as 0.834. In the case of NCI-H1563, the relative viability is reported as 1.19. NCI-H1944 showed a relative viability of 1.21. With NCI-H1975 the relative viability was 0.9. With RERF-LC-KJ the relative viability was 0.926. ABC-1 was tested, and the relative viability was 0.891. Cell Line NCI-H358 has a relative viability of 0.818. NCI-H650 gave a relative viability of 0.833. PC-3 [JPC-3] gave a relative viability of 0.969.

Same assay, conditions: first compound 0.1 µM
Work on NCI-H647 yielded a relative viability of 1.38. CAL-12T was tested, and the relative viability was 0.876. Cell Line NCI-H1651 has a relative viability of 0.966. With EPLC-272H the relative viability was 1.26. NCI-H2228 showed a relative viability of 0.689. For NCI-H1792, the relative viability was 0.625. Cell Line NCI-H1355 has a relative viability of 0.801. Cell Line NCI-H3122 has a relative viability of 0.991. NCI-H1437 was tested, and the relative viability was 1.01. In the case of NCI-H1755, the relative viability is reported as 1.03. In the case of NCI-H2023, the relative viability is reported as 0.715. HCC-15 was tested, and the relative viability was 0.922. Work on PC-14 yielded a relative viability of 1.02. In the case of EKVX, the relative viability is reported as 1.06. Work on LC-2-ad yielded a relative viability of 0.858. NCI-H1563 gave a relative viability of 1.21. Cell Line NCI-H1944 has a relative viability of 1.18. NCI-H1975 gave a relative viability of 0.948. Work on RERF-LC-KJ yielded a relative viability of 0.857. ABC-1 was tested, and the relative viability was 0.752. Work on NCI-H358 yielded a relative viability of 0.712. Cell Line NCI-H650 has a relative viability of 0.936. Work on PC-3 [JPC-3] yielded a relative viability of 0.946.

Same assay, conditions: first compound 0.3162 µM
In the case of NCI-H647, the relative viability is reported as 1.14. CAL-12T showed a relative viability of 0.882. NCI-H1651 gave a relative viability of 0.944. With EPLC-272H the relative viability was 1.24. Cell Line NCI-H2228 has a relative viability of 0.5. Cell Line NCI-H1792 has a relative viability of 0.561. NCI-H1355 showed a relative viability of 0.865. For NCI-H3122, the relative viability was 1.01. In the case of NCI-H1437, the relative viability is reported as 1.01. In the case of NCI-H1755, the relative viability is reported as 1.02. Cell Line NCI-H2023 has a relative viability of 0.587. HCC-15 gave a relative viability of 0.992. With PC-14 the relative viability was 0.997. Cell Line EKVX has a relative viability of 1.12. For LC-2-ad, the relative viability was 0.881. In the case of NCI-H1563, the relative viability is reported as 1.14. NCI-H1944 showed a relative viability of 1.32. Work on NCI-H1975 yielded a relative viability of 0.909. Work on RERF-LC-KJ yielded a relative viability of 0.919. ABC-1 gave a relative viability of 0.587. With NCI-H358 the relative viability was 0.785. With NCI-H650 the relative viability was 1.02. For PC-3 [JPC-3], the relative viability was 1.04.

Same assay, conditions: first compound 1 µM
Cell Line NCI-H647 has a relative viability of 1.14. With CAL-12T the relative viability was 0.822. In the case of NCI-H1651, the relative viability is reported as 1.08. In the case of EPLC-272H, the relative viability is reported as 1.38. Work on NCI-H2228 yielded a relative viability of 0.509. In the case of NCI-H1792, the relative viability is reported as 0.492. NCI-H1355 gave a relative viability of 0.834. NCI-H3122 showed a relative viability of 0.965. NCI-H1437 was tested, and the relative viability was 1.13. NCI-H1755 gave a relative viability of 1.02. NCI-H2023 gave a relative viability of 0.643. In the case of HCC-15, the relative viability is reported as 0.926. For PC-14, the relative viability was 0.97. EKVX gave a relative viability of 1.07. Cell Line LC-2-ad has a relative viability of 0.766. NCI-H1563 showed a relative viability of 1.21. NCI-H1944 gave a relative viability of 1.21. NCI-H1975 gave a relative viability of 0.941. RERF-LC-KJ showed a relative viability of 0.844. For ABC-1, the relative viability was 0.774. For NCI-H358, the relative viability was 0.905. NCI-H650 was tested, and the relative viability was 0.795. Work on PC-3 [JPC-3] yielded a relative viability of 0.944.

The cell lines below were run with CC1(C)CNc2cc(NC(=O)c3cccnc3NCc3ccncc3)ccc21 [Motesanib] + C[C@@H](Oc1cc(-c2cnn(C3CCNCC3)c2)cnc1N)c1c(Cl)ccc(F)c1Cl [Crizotinib] (partner 1 µM) in the same assay as above. Details: first compound 0.01 µM.
Procedure, shortened: as §1
Work on NCI-H647 yielded a relative viability of 1. In the case of CAL-12T, the relative viability is reported as 0.627. Work on NCI-H1651 yielded a relative viability of 0.836. With EPLC-272H the relative viability was 0.935. Work on NCI-H2228 yielded a relative viability of 0.386. NCI-H1792 gave a relative viability of 0.931. In the case of NCI-H1355, the relative viability is reported as 1.12. NCI-H3122 showed a relative viability of 0.253. NCI-H1437 was tested, and the relative viability was 0.888. NCI-H1755 was tested, and the relative viability was 0.862. Cell Line NCI-H2023 has a relative viability of 0.711. With HCC-15 the relative viability was 0.778. In the case of PC-14, the relative viability is reported as 0.944. With EKVX the relative viability was 0.988. Cell Line LC-2-ad has a relative viability of 0.442. In the case of NCI-H1563, the relative viability is reported as 0.867. NCI-H1944 was tested, and the relative viability was 1.08. In the case of NCI-H1975, the relative viability is reported as 1.05. For RERF-LC-KJ, the relative viability was 0.87. ABC-1 was tested, and the relative viability was 0.996. For NCI-H358, the relative viability was 0.578. NCI-H650 was tested, and the relative viability was 0.774. With PC-3 [JPC-3] the relative viability was 0.997.

Same assay, conditions: first compound 0.03162 µM
In the case of NCI-H647, the relative viability is reported as 1.06. CAL-12T gave a relative viability of 0.56. Work on NCI-H1651 yielded a relative viability of 0.835. With EPLC-272H the relative viability was 0.969. In the case of NCI-H2228, the relative viability is reported as 0.424. Cell Line NCI-H1792 has a relative viability of 0.92. NCI-H1355 showed a relative viability of 1.14. With NCI-H3122 the relative viability was 0.27. For NCI-H1437, the relative viability was 0.996. Work on NCI-H1755 yielded a relative viability of 0.867. With NCI-H2023 the relative viability was 0.592. HCC-15 showed a relative viability of 0.782. Work on PC-14 yielded a relative viability of 0.965. In the case of EKVX, the relative viability is reported as 0.889. LC-2-ad was tested, and the relative viability was 0.46. Work on NCI-H1563 yielded a relative viability of 0.855. NCI-H1944 showed a relative viability of 1.06. NCI-H1975 was tested, and the relative viability was 0.848. With RERF-LC-KJ the relative viability was 0.762. ABC-1 gave a relative viability of 1.03. NCI-H358 was tested, and the relative viability was 0.346. For NCI-H650, the relative viability was 0.685. PC-3 [JPC-3] showed a relative viability of 1.03.

Same assay, conditions: first compound 0.1 µM
NCI-H647 showed a relative viability of 1.2. CAL-12T was tested, and the relative viability was 0.664. NCI-H1651 gave a relative viability of 0.786. With EPLC-272H the relative viability was 1.05. For NCI-H2228, the relative viability was 0.619. Cell Line NCI-H1792 has a relative viability of 1.01. Cell Line NCI-H1355 has a relative viability of 0.994. For NCI-H3122, the relative viability was 0.285. For NCI-H1437, the relative viability was 0.963. Cell Line NCI-H1755 has a relative viability of 0.893. NCI-H2023 showed a relative viability of 0.747. Cell Line HCC-15 has a relative viability of 0.799. PC-14 was tested, and the relative viability was 0.898. For EKVX, the relative viability was 0.916. Work on NCI-H1563 yielded a relative viability of 0.906. NCI-H1944 showed a relative viability of 1.17. NCI-H1975 was tested, and the relative viability was 0.93. RERF-LC-KJ was tested, and the relative viability was 0.878. Cell Line ABC-1 has a relative viability of 1.26. Cell Line NCI-H358 has a relative viability of 0.763. NCI-H650 gave a relative viability of 0.874. With PC-3 [JPC-3] the relative viability was 1.02.

Same assay, conditions: first compound 0.3162 µM
In the case of NCI-H647, the relative viability is reported as 1.19. Cell Line CAL-12T has a relative viability of 0.758. NCI-H1651 showed a relative viability of 0.912. EPLC-272H was tested, and the relative viability was 1.04. NCI-H2228 was tested, and the relative viability was 0.431. For NCI-H1792, the relative viability was 1.05. Work on NCI-H1355 yielded a relative viability of 1.07. Work on NCI-H3122 yielded a relative viability of 0.295. For NCI-H1437, the relative viability was 0.95. NCI-H1755 gave a relative viability of 0.91. NCI-H2023 was tested, and the relative viability was 0.571. HCC-15 gave a relative viability of 0.835. PC-14 gave a relative viability of 0.883. With EKVX the relative viability was 1.09. LC-2-ad showed a relative viability of 0.441. NCI-H1563 was tested, and the relative viability was 0.804. NCI-H1944 gave a relative viability of 1.02. NCI-H1975 gave a relative viability of 0.889. RERF-LC-KJ gave a relative viability of 0.768. With ABC-1 the relative viability was 1.14. For NCI-H358, the relative viability was 0.586. NCI-H650 was tested, and the relative viability was 0.71. PC-3 [JPC-3] showed a relative viability of 1.01.

Same assay, conditions: first compound 1 µM
Work on NCI-H647 yielded a relative viability of 0.964. CAL-12T gave a relative viability of 0.559. Cell Line NCI-H1651 has a relative viability of 0.838. In the case of EPLC-272H, the relative viability is reported as 0.944. For NCI-H2228, the relative viability was 0.571. Cell Line NCI-H1792 has a relative viability of 0.968. NCI-H1355 showed a relative viability of 1.05. In the case of NCI-H3122, the relative viability is reported as 0.267. Work on NCI-H1437 yielded a relative viability of 1.05. NCI-H1755 was tested, and the relative viability was 0.882.
